Source: ChEMBL document CHEMBL5154894, “Discovery of 2-Amino-3-cyanothiophene Derivatives as Potent STAT3 Inhibitors for the Treatment of Osteosarcoma Growth and Metastasis” (J Med Chem, 2022)
The source made the active and inactive calls. No cut-off for these calls is given here.

Tests used:
[1] = Cytotoxicity against hFOB 1.19 cells assessed as inhibition of cell growth incubated for 48 hrs by cell titer based MTS assay; format: toxicity; settings: human
[2] = system: 143B; assay: Down regulation of phosphorylated-STAT1 level in human 143B cells at 1 uM by Western blotting analysis; format: functional, cell-based
[3] = Volume of distribution in rat at 1 mg/kg, iv measured after 24 hrs by LC-MS/MS analysis; format: ADME, organism-based; settings: in vivo

Vd [3]: 0.4 L/kg
SMILES: COc1ccc(NC(=O)N2CCc3c(sc(NC(=O)c4cnn(C)c4)c3C#N)C2)cc1
IC50 at 48 h [1]: 12.6 µM | Activity [2]: Active
